Laboratory results from patent US20160084820A1, “METHODS OF TREATING OR PREVENTING PERIODONTITIS AND DISEASES ASSOCIATED WITH PERIODONTITIS” (priority 2010, published 2016).

Assays:
[1] = system: phagocytosed P. gingivalis in mouse peritoneal macrophages; assay type: cell-based, P. gingivalis ATCC 33277; details: Pg MOI=10:1; C5a 50 nM or C3a 200 nM; 24 or 48 hours post-infection
Protocol: The viability of phagocytosed P. gingivalis was monitored by an antibiotic protection-based intracellular survival assay, as previously described (Wang et al., 2007, J. Immunol., 179:2349-58). Briefly, mouse peritoneal macrophages were allowed to phagocytose P. gingivalis (MOI=10:1; 5×10^6 bacteria and 5×10^5 cells) for […] at 37° C. This was followed by washing to remove extracellular nonadherent bacteria and 1-hour treatment with antibiotics (300 μg/ml gentamicin and 200 μg/ml metronidazole) to eliminate residual or extracellular adherent bacteria. The macrophages were subsequently cultured overnight (for a total of 24 hours) or for 48 hours Immediately after, the macrophages were washed and lysed in sterile distilled water, and viable counts of internalized P. gingivalis were determined by plating serial dilutions of macrophage lysates on blood agar plates subjected to anaerobic culture.
The viability of phagocytosed P. gingivalis was monitored by an antibiotic protection-based intracellular survival assay, as previously described (Wang et al., 2007, J. Immunol., 179:2349-58)). Briefly, mouse peritoneal macrophages were allowed to phagocytose P. gingivalis (at a MOI=10:1; 5×10^6 bacteria and 5×10^5 macrophages) for 30 min at 37° C. This was followed by washing to remove extracellular nonadherent bacteria and 1-hour treatment with antibiotics (300 μg/ml gentamicin and 200 μg/ml metronidazole) to eliminate residual or extracellular adherent bacteria. The macrophages were subsequently cultured overnight for a total of 24 hours Immediately after, the macrophages were washed and lysed in sterile distilled water and viable counts of internalized P. gingivalis were determined by plating serial dilutions of macrophage lysates on blood agar plates subjected to anaerobic culture.

[2] = system: mouse peritoneal macrophages; assay: P. gingivalis phagocytosis and receptor expression by flow cytometry; assay type: cell-based; details: C5a 50 nM or C3a 200 nM, 30-min incubation
Protocol: First, experiments were performed to determine the effect of C5a (50 nM) or C3a (200 nM) on P. gingivalis phagocytosis by unprimed or IFN-γ-primed mouse peritoneal macrophages (FIG. 6A). The phagocytic index was calculated following a 30-min incubation using the following formula: % positive cells for fluorescently labeled P. gingivalis×MFI/100 (extracellular fluorescence was quenched prior to flow cytometry). Mouse macrophages were incubated at 37° C. for 30 min (B) or 24 hours (C) with medium, C5a (50 nM) only, or P. gingivalis (MOI=10:1) with or without C5a (50 nM). The expression levels of the indicated receptors, which coordinately mediate P. gingivalis uptake, were determined by flow cytometry after cell staining with appropriate fluorescently labeled antibodies (FIGS. 6B and 6C). The 30-min time point was examined to determine possible induced surface expression of preformed receptors from intracellular pools. […] Mouse-specific mAbs to TLR2 (clone 6C2), TLR1 (TR23), CD14 (Sa2-8), CD11b (M1/70), and CD18 (M18/2) were obtained from e-Bioscience.

[3] = system: lipid rafts (GM1 ganglioside); assay: FRET of TLR2, C5aR, CXCR4 with GM1 lipid raft marker; assay type: cell-based, mouse; details: MCD 10 mM for 30 min
Protocol: Upon stimulation for 10 min at 37° C. with P. gingivalis, mouse macrophages were labeled with a mixture of Cy3-conjugated (donor) and Cy5-conjugated (acceptor) antibodies, as indicated in FIG. 4I. In additional experiments shown in FIG. 4I, FITC-labeled P. gingivalis was used as donor and TRITC-labeled receptors served as acceptors. The cells were washed and fixed, and energy transfer between various donor-acceptor pairs was calculated from the increase in donor fluorescence after acceptor photobleaching (REF 9, 14). […] The conjugation of antibodies to Cy3 or Cy5 was performed using kits from Amersham Biosciences.
Supplemental experiments also examined the association of TLR2, C5aR, and CXCR4 with GM1 (lipid raft marker) in P. gingivalis-stimulated macrophages (FIG. 10). Mouse macrophages were pretreated (or not) with methyl-β-cyclodextrin (MCD; 10 mM for 30 min) and then stimulated for 10 min with P. gingivalis (Pg; MOI=10:1) or medium only (med). Fluorescence resonance energy transfer (FRET) between TLR2, C5aR, CXCR4, TLR5, or MHC Class I (Cy3-labeled) and the GM1 ganglioside (Cy5-labeled) was measured from the increase in donor (Cy3) fluorescence after acceptor (Cy5) photobleaching. TLR5 and MHC Class I served as negative controls. […] As expected, max FRET values (38±1.2) were not affected by the cell activation status (med vs. Pg) or the use or not of MCD.

Substance | intracellular survival of P. gingivalis in macrophages (viable counts of internalized bacteria) [1] | P. gingivalis phagocytosis [2] | FRET increase between receptors and GM1 in P. gingivalis-stimulated macrophages [3]
C3a: related anaphylatoxin C3a from R&D Systems | not by the related anaphylatoxin C3a | not significantly affected | 
methyl-β-cyclodextrin [MCD] |  |  | reversal of FRET increase
